The CheMixHub viscosity set

Test: xn = mol fraction of the nth substance listed

C=CC[P+](c1ccccc1)(c1ccccc1)c1ccccc1.[Br-] + OCCOCCO
viscosity [mPa·s], 100 kPa
Conditions | 293.15 K | 298.15 K | 303.15 K | 308.15 K | 313.15 K | 318.15 K | 323.15 K
x1 = 0.05884 | 57.19 | 43.59 | 33.68 | 26.69 | 21.74 | 17.83 | 14.79
x1 = 0.09089 | 70.92 | 53.42 | 41.11 | 32.27 | 25.8 | 20.96 | 17.27
x1 = 0.2 | 213.2 | 150.8 | 109.1 | 81.11 | 61.8 | 47.98 | 37.87

Brc1ccccc1 + Cc1ccccc1
101 kPa
Conditions | viscosity [mPa·s]
293.15 K, x2 = 0.2 | 1.001
293.15 K, x2 = 0.4 | 0.885
293.15 K, x2 = 0.6 | 0.778
293.15 K, x2 = 0.8 | 0.677
298.15 K, x1 = 0.129 | 0.613
298.15 K, x1 = 0.267 | 0.672
298.15 K, x1 = 0.379 | 0.72
298.15 K, x1 = 0.505 | 0.786
298.15 K, x1 = 0.629 | 0.851
298.15 K, x1 = 0.736 | 0.91
298.15 K, x1 = 0.853 | 0.981
298.15 K, x1 = 0.882 | 0.996
298.15 K, x2 = 0.53 | 0.75
298.15 K, x2 = 0.623 | 0.7
298.15 K, x2 = 0.72 | 0.658
298.15 K, x2 = 0.869 | 0.603
303.15 K, x1 = 0.101 | 0.581
303.15 K, x1 = 0.129 | 0.574
303.15 K, x1 = 0.202 | 0.635
303.15 K, x1 = 0.267 | 0.626
303.15 K, x1 = 0.303 | 0.689
303.15 K, x1 = 0.379 | 0.674
303.15 K, x1 = 0.403 | 0.74
303.15 K, x1 = 0.503 | 0.788
303.15 K, x1 = 0.505 | 0.729
303.15 K, x1 = 0.603 | 0.831
303.15 K, x1 = 0.629 | 0.792
303.15 K, x1 = 0.703 | 0.877
303.15 K, x1 = 0.736 | 0.857
303.15 K, x1 = 0.802 | 0.918
303.15 K, x1 = 0.853 | 0.92
303.15 K, x1 = 0.882 | 0.938
303.15 K, x1 = 0.901 | 0.957
313.15 K, x2 = 0.2 | 0.786
313.15 K, x2 = 0.4 | 0.697
313.15 K, x2 = 0.6 | 0.614
313.15 K, x2 = 0.8 | 0.537

CC(C)N + CCC(C)=O
298.15 K, 101 kPa
Conditions | viscosity [mPa·s]
x2 = 0.0835 | 0.288
x2 = 0.1701 | 0.3
x2 = 0.26 | 0.314
x2 = 0.3534 | 0.33
x2 = 0.4505 | 0.345
x2 = 0.5515 | 0.358
x2 = 0.6567 | 0.37
x2 = 0.7663 | 0.371
x2 = 0.8806 | 0.372

COC(=O)CC(=O)OC + ClC(Cl)(Cl)Cl
303.15 K, 101 kPa
Conditions | viscosity [mPa·s]
x1 = 0.0856 | 0.9503
x1 = 0.1747 | 1.064
x1 = 0.2659 | 1.186
x1 = 0.3608 | 1.295
x1 = 0.4586 | 1.409
x1 = 0.5599 | 1.52
x1 = 0.6641 | 1.601
x1 = 0.7723 | 1.687
x1 = 0.8841 | 1.753

Brc1ccccc1 + CC(C)CO
viscosity [mPa·s], 101.33 kPa
Conditions | x1 = 0.1065 | x1 = 0.1936 | x1 = 0.2949 | x1 = 0.4015 | x1 = 0.5016 | x1 = 0.6014 | x1 = 0.7006 | x1 = 0.7967 | x1 = 0.8995
298.15 K | 2.649 | 2.205 | 1.831 | 1.532 | 1.36 | 1.231 | 1.144 | 1.088 | 1.055
313.15 K | 1.727 | 1.483 | 1.28 | 1.116 | 1.022 | 0.9534 | 0.9062 | 0.8769 | 0.8637

N#C[S-].[NH4+] + CCn1cc[n+](C)c1.N#C[S-]
viscosity [mPa·s], 100 kPa
Conditions | 298.15 K | 303.15 K | 308.15 K | 313.15 K | 318.15 K | 323.15 K
x1 = 0.039 | 25.91 | 21.97 | 18.84 | 16.11 | 14.28 | 12.59
x1 = 0.099 | 29.91 | 25.16 | 21.4 | 18.21 | 16 | 14.03
x1 = 0.1395 | 31.58 | 26.49 | 22.47 | 19.09 | 16.71 | 14.62
